How the values were obtained:
[1] = system: DLD-1 cells; experiment: Apoptosis detection by flow cytometry, Annexin V & IP; type: cell-based, human; conditions: DLD-1, 7 hours treatment
Experimental: Cell death was analysed by flow cytometry using de Aposcreen Annexin V Apoptosis Kit (Southern Biotech) according to manufacturer procedures. Cells were seeded at 4×10^5 cells per well in six-well. Twenty-four hours later, cells were treated with the indicated compounds. Cells were rinsed twice in cold PBS and after removing it cells were resuspended in cold 1× binding buffer to a concentration from 1×10^6 to 1×10^7 cells/mL. 100 μl of these cells were collected in a flow cytometry tube and 10 μl of Annexin V were added. After gently vortexing, tubes were incubated for 15 minutes on ice, protected from light. Without washing, 380 μl of 1× binding buffer were added to each sample prior to 10 μl of propidium iodine. Cells were immediately analysed by flow cytometry.
The synergism observed in vitro was also analysed by flow cytometry using Annexin V & IP staining to distinguish between apoptosis and necrosis or late apoptosis. […] When DLD-1 cells are treated with TRAIL alone there is a 35% of apoptosis. In combination tumour cell death is amplified up to 50%. When DLD-1 are treated with RSM-932A (TCD-717) in combination with TRAIL there is a 55% increase in tumour cell death but mainly the necrotic or late apoptosis population because RSM-932A (TCD-717) has an effect that is faster than MN58. […]

[2] = system: H460 cells; experiment: Cell proliferation assay (MTT); type: cell-based, human
Experimental: (§1) All cell lines used in this study were maintained under standard conditions of temperature (37° C.), humidity (95%), and carbon dioxide (5%). Human primary bronchial epithelial cells, NHBE (BEC) (Cambrex, CC-2541) were grown in BEGM (Bronchial Epithelial cell growth media) BulletKit (Cambrex, CC-3170). Human primary mammary epithelial cells, HMEC (Clonetics, CC-2551) were grown in MEBM medium supplemented with a bullet kit (Clonetics, CC-3150). Epithelial non-small lung cancer cells H460 and H1299, and small cell lung cancer cell lines H510 and H82 were maintained in RPMI supplemented with 10% Fetal Bovine Serum (FBS) (Life Technologies, Grand Island, N.Y.).
(§2) Cells were seeded on 96-well plates (BD, Falcon, Bioscience, San Jose, Calif., USA) at a density of 6000 cells/well, and incubated for 24 h under standard conditions. Then, cells were treated with different concentrations of the ChoK inhibitors (quadruplicates of each concentration) and maintained for 72 hours. […] Absorbance is read at 595 nm in a VersaMax Microplate Reader (Molecular Devices, Sunnyvale, Calif., USA). For sensitization with acid ceramidase inhibitor, cells were pre-treated […] with the correspondent IC50 for NOE before treatment with ChoK inhibitors. NOE (N-Oleoyl ethanolamine) was obtained from Calbiochem (La Jolla, Calif., USA).
Thus, disruption in the levels of acid ceramidase may allow ChoK inhibitors to have a better effect in these cells. To verify this hypothesis, we used the previously characterized acid ceramidase inhibitor, N-Oleoylethanolamine (NOE) (Grijalvo S., Chem Phys Lipids. 2006; 144:69-84), to investigate if the inhibition of acid ceramidase sensitizes tumour cell lines to ChoK inhibitors. To that end, H460 cells were pre-treated with NOE for three hours to inhibit acid ceramidase.
H460 cells were pre-treated with these compounds for three hours to inhibit ceramidases. […] Furthermore, the combined use of ChoK inhibitors and acid ceramidase inhibitors provides a further stronger anticancer activity.

[3] = system: DR5 (TNFRSF10B or TRAIL-R2) in SW620 cell line; experiment: DR5 levels by quantitative PCR; type: cell-based, human
Experimental: (§3) 1 μg of RNA was used to generate cDNA using High-Capacity cDNA Archive Kit (Applied Biosystems), and quantitative real-time PCR was carried out in triplicate using the ABI PRISM 7700 Sequence Detector (Applied Biosystems). GAPDH and 18S ribosomal mRNA were amplified as internal controls. Probes used for amplification were from Applied Biosystems as Taqman Gene Expression Assays (ASAH1: HS00602774—M1 Taqman Probe, ASAH2: HS00184096_M1 Taqman Probe and ASAH3: HS00370322_M1 Taqman Probe, DUT: HS00798995_S1 Taqman Probe, TYMS: HS00426591_M1 Taqman Probe, UPP1: HS00427695—M1 Taqman Probe, RRM2: HS00357247_G1 Taqman Probe). The 2-^ΔΔCt method was used (Livak K J., Methods. 2001; 25:402-8) to calculate the relative expression of each gene.
(§4) TRAIL is a member of the tumour necrosis factor (TNF) superfamily and can induce apoptosis by the extrinsic pathway associated via stimulation of death receptors DR4 (TNFRSF10A or TRAIL-R1) and DR5 (TNFRSF10B or TRAIL-R2). In order to determine the mechanism of the effectivity of the combined therapy of TRAIL and ChoK inhibitors, DR5 and DR4 levels were analysed by quantitative PCR in DLD-1 and SW620 cell lines after treatments with MN58b, TRAIL or their simultaneous combination.

[4] = system: DR5 (TNFRSF10B or TRAIL-R2) in DLD-1 cell line; experiment: DR5 levels by quantitative PCR; type: cell-based, human
Experimental: as §3, §4

[5] = system: Primary BEC (human primary bronchial epithelial cells); experiment: Cell proliferation assay (MTT); type: cell-based; conditions: 48 h, inhibitor and unit not printed in table (MN58b, μM), read-out: IC50 48 h
Experimental: as §1
as §2, with “conditions.” for “conditions. Then, cells were treated with different concentrations of the ChoK inhibitors (quadruplicates of each concentration) and maintained for 72 hours.”

## CN(C)c1cc[n+](Cc2ccc(CCCCc3ccc(C[n+]4ccc(N(C)C)cc4)cc3)cc2)cc1 [MN58b, 1,4-(4-4′-Bis-((4-(dimethylamine)pyridinium-1-yl)methyl)diphenyl)butane dibromide]
[1]
  apoptosis: only a little increase in apoptosis
[2]
  figure in parentheses after IC50 48 h (not defined; fold vs primary cells): 6
  figure in parentheses after IC50 72 h (not defined; fold vs primary cells): 8
  figure in parentheses after IC50 144 h (not defined; fold vs primary cells): 3
[3]
  increase in DR5 levels: 2 fold
[4]
  increase in DR5 levels: 1.6 fold
[5]
  IC 50: 40.5 ± 6.2 µM

— patent US20110256241A1, “METHODS AND COMPOSITIONS FOR THE TREATMENT OF CANCER” (TRASLATIONAL CANCER DRUGS PHARMA, S.L., priority 2008, published 2011)
